Key:
[1] = target: T1, Histone-lysine N-methyltransferase EZH2 (Homo sapiens, UniProt Q15910); assay: Inhibition of EZH2 (unknown origin) using 3H-SAM as substrate incubated for 1 hour by filter binding method
[2] = Metabolic stability in human liver microsomes at 1 uM in presence of NADPH generating system by LC/MS/MS analysis; type: ADME, Microsome; conditions: read-out: Stability
MDR1 = assay: Efflux ratio of apparent permeability across basolateral to apical side over apical to basolateral side in MDCK-MDR1 cells at 1 to 10 uM measured after 1 hrs by LC/MS/MS analysis; type: ADME, cell-based, Canis lupus familiaris; conditions: dog, dose 1-10 µM
[3] = Apparent permeability across apical to basolateral side in MDCK-MDR1 cells at 1 to 10 uM measured after 1 hrs by LC/MS/MS analysis; type: ADME, cell-based, Canis lupus familiaris; conditions: dog, dose 1-10 µM
[4] = Metabolic stability in mouse liver microsomes at 1 uM in presence of NADPH generating system by LC/MS/MS analysis; type: ADME, Microsome; conditions: read-out: Stability
KARPAS-422 = assay: Antiproliferative activity against human KARPAS-422 cells assessed as cell growth inhibition incubated for 72 hrs followed by compound dilution in growth medium and measured after 96 hrs by Alamar blue assay; type: functional, cell-based
[5] = target: T1, Histone-lysine N-methyltransferase EZH2; assay: Inhibition of EZH2 in HEK293T cells assessed as H3K27me3 levels incubated for 48 hrs by flow cytometry; type: cell-based
[6] = Ratio of unbound drug concentration in brain to blood in Sprague-Dawley rat at 1 mg/kg, iv measured after 15 mins by LC/MS/MS analysis; type: ADME, organism-based; conditions: read-out: K(p,uu,brain)

T1 sequence (Q15910 whole entry): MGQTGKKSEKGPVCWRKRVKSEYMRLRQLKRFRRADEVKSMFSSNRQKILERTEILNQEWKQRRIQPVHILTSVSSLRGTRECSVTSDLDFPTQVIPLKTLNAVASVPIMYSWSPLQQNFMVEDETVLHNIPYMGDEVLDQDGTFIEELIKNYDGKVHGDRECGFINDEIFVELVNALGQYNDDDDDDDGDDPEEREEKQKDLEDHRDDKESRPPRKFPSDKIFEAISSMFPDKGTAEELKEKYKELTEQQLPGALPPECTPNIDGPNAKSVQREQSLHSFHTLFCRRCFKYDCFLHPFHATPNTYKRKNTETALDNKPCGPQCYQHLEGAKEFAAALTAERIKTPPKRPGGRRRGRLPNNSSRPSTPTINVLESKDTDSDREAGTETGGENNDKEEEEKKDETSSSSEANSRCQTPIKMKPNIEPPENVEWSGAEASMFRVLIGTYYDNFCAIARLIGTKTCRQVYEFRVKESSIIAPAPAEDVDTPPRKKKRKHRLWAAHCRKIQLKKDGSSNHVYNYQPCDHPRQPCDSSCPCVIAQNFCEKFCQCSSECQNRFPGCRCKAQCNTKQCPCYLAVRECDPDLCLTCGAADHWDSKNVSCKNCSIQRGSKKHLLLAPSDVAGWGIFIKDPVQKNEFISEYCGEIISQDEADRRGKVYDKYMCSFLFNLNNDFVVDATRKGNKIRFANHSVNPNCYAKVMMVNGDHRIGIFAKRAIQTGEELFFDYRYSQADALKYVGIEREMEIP

| SMILES | IC50 [1] [nM] | microsomal CLint at 1 µM [2] [µL/min/mg] | efflux ratio at 1 h, up to 10 µM (MDR1) | Papp A→B at 1 h, up to 10 µM [3] [×10⁻⁶ cm/s] | microsomal CLint at 1 µM [4] [µL/min/mg] | IC50 (KARPAS-422) [nM] | IC50 [5] [nM] | Kp uu at 0.25 h [6] |
| --- | --- | --- | --- | --- | --- | --- | --- | --- |
| Cc1noc(C)c1-c1cc(Cl)c2c(c1Cl)C(=O)N(Cc1c(C3CC3)cc(C)n(C)c1=O)CC2 | 302 | 490 | 1.5 | 5.2 | > 768 | – | – | – |
| COc1cc(C)[nH]c(=O)c1CN1CCN(C)c2c(Cl)cc(-c3ccc(N4CCOCC4)cc3)c(Cl)c2C1=O | 64.8 | 7 | – | – | 8 | – | – | – |
| COc1cc(C)[nH]c(=O)c1CN1CCN(C)c2c(Cl)cc(OC(C)C)c(Cl)c2C1=O | 33.4 | 29 | – | – | > 768 | – | – | – |
| COc1cc(C)[nH]c(=O)c1CN1CCN(C)c2c(Cl)cc(-c3ccc(Cl)cc3F)c(Cl)c2C1=O | 72.1 | 97 | – | – | 297 | – | – | – |
| COc1cc(C)n(C)c(=O)c1CN1CCN(C)c2c(Cl)cc(-c3c(C)noc3C)c(Cl)c2C1=O | 541 | – | – | – | – | – | – | – |
| COc1cc(C)n(C)c(=O)c1CN1CCc2c(Cl)cc(-c3c(C)noc3C)c(Cl)c2C1=O | 11.6 | 117 | 23 | 1 | 656 | 2950 | – | – |
| Cc1noc(C)c1-c1cc(Cl)c2c(c1Cl)C(=O)N(Cc1c(C(F)(F)F)cc(C)n(C)c1=O)CC2 | > 1000 | 287 | 2.4 | 4.9 | 592 | – | – | – |
| CSc1cc(C)n(C)c(=O)c1CN1CCN(C)c2c(Cl)cc(-c3c(C)noc3C)c(Cl)c2C1=O | 11.4 | – | 110 | 0.2 | – | 10400 | – | – |
| CCc1cc(C)n(C)c(=O)c1CN1CCc2c(Cl)cc(-c3c(C)noc3C)c(Cl)c2C1=O | 82 | > 768 | 0.72 | 11 | > 768 | – | – | – |
| CCN1CCN(Cc2c(OC)cc(C)[nH]c2=O)C(=O)c2c(Cl)c(-c3c(C)noc3C)cc(Cl)c21 | 33.4 | – | – | – | – | – | – | – |
| Cc1cc(C)n(C)c(=O)c1CN1CCc2c(Cl)cc(-c3c(C)noc3C)c(Cl)c2C1=O | – | 449 | – | 10.5 | > 768 | 4680 | – | 0.29 |
| COc1cc(C)[nH]c(=O)c1CN1CCN(C)c2c(Cl)cc(-c3ccc(CN4CCOCC4)cc3)c(Cl)c2C1=O | 220 | 41 | – | – | 41 | – | – | – |

Continued, values first:

| IC50 [1] [nM] | microsomal CLint at 1 µM [2] [µL/min/mg] | efflux ratio at 1 h, up to 10 µM (MDR1) | Papp A→B at 1 h, up to 10 µM [3] [×10⁻⁶ cm/s] | microsomal CLint at 1 µM [4] [µL/min/mg] | IC50 (KARPAS-422) [nM] | IC50 [5] [nM] | Kp uu at 0.25 h [6] | SMILES |
| --- | --- | --- | --- | --- | --- | --- | --- | --- |
| 1.3 | 235 | 110 | 0.3 | 796 | 632 | – | – | CSc1cc(C)n(C)c(=O)c1CN1CCc2c(Cl)cc(-c3c(C)noc3C)c(Cl)c2C1=O |
| 2 | 206 | – | – | 562 | – | – | – | COc1cc(C)[nH]c(=O)c1CN1CCN(C)c2c(Cl)cc(C(C)C3CCOCC3)c(Cl)c2C1=O (stereo not given) |
| 2.9 | 9 | – | < 0.1 | – | – | – | – | COc1cc(C)[nH]c(=O)c1CN1CCN(C)c2ccc(-c3c(C)noc3C)c(Cl)c2C1=O |
| 2.1 | – | 220 | 0.2 | – | 1320 | – | – | CSc1cc(C)n(C)c(=O)c1CN1CCNc2c(Cl)cc(-c3c(C)noc3C)c(Cl)c2C1=O |
| 1.8 | – | > 170 | < 0.1 | – | – | – | – | CCc1cc(C)[nH]c(=O)c1CN1CCN(C)c2c(Cl)cc(-c3c(C)noc3C)c(Cl)c2C1=O |
| 1.9 | 181 | – | – | > 768 | – | – | – | CCN(c1cc(Cl)c2c(c1Cl)C(=O)N(Cc1c(OC)cc(C)[nH]c1=O)CCN2C)C1CCOCC1 |
| 0.9 | – | > 99 | < 0.1 | – | 125 | – | – | CSc1cc(C)[nH]c(=O)c1CN1CCN(C)c2c(Cl)cc(-c3c(C)noc3C)c(Cl)c2C1=O |
| 0.35 | 79 | > 51 | < 0.1 | 123 | 65 | 17 | – | COc1cc(C)[nH]c(=O)c1CN1CCNc2c(Cl)cc(-c3c(C)noc3C)c(Cl)c2C1=O |
| 0.87 | 80 | > 49 | < 0.1 | 112 | 245 | 208 | – | COc1cc(C)[nH]c(=O)c1CN1CCN(C)c2c(Cl)cc(-c3c(C)noc3C)c(Cl)c2C1=O |
| 1 | 210 | 4.8 | 3.7 | 253 | 122 | 16 | < 0.003 | Cc1cc(C)c(CN2CCc3c(Cl)cc(-c4c(C)noc4C)c(Cl)c3C2=O)c(=O)[nH]1 |
| 9.4 | 34 | – | – | 91 | – | – | – | COc1cc(C)[nH]c(=O)c1CN1CCN(C)c2c(Cl)cc(C(O)C3CCOCC3)c(Cl)c2C1=O (stereo not given) |
